Test results published in patent publication US4236010A, “Phenyl-quinolizidines” (Hoffmann-La Roche Inc., priority 1978, dated 1980).
Structures can show the parent of a compound that is named as a salt.

Assays:
[1] = target: T1, calf striatum (specific binding of [^3 H] spiroperidol on the receptor) (Bos taurus, UniProt P20288); experiment: Spiroperidol-binding test (in vitro); conditions: 50% detachment of specific [^3 H] spiroperidol binding
T1 construct: calf striatum was used as the receptor; from tissue; host or cells: calf striatum
Description: Spiroperidol-binding test (in vitro)
In this in vitro test calf striatum was used as the receptor [Creese et al., Life Sci. 17, 993 (1975)] and incubated with [^3 H] spiroperidol in analogy to the method described by Fields et al., Brain Research 136, 578 (1977).

[2] = "Pole Climbing" test (rat); assay type: in vivo; conditions: ip, 6 h; for ED50: Rattus norvegicus, read-out: Pole-Climbing BCR (Block of Conditioned Reflex) ED50 i.p.; for ED10: rat, i.p., inhibition of the unconditioned reaction, ED 10, read-out: Pole-Climbing BUR (Block of Unconditioned Reflex) ED10 i.p.
From the text: "Pole Climbing" test (rat)
In this test, there was used, for each dosage, a group of 10 rats which had been trained to escape an electric shock, unconditioned stimulus, produced via the lattice floor immediately after an acoustic signal, conditioned stimulus, by jumping up a vertical isolated pole in the experimental cage.

Writhing test (mouse) = assay type: in vivo; conditions: po, 1 h, male mice, p.o., 60 minutes after administration
Description: Eight male mice (20-22 g.) per dosage, were used for this test. Sixty minutes after oral administration of the test substance, the mice were injected intraperitoneally with 10 ml/kg of the test solution. Following a latent period of 5 minutes, the number of animals in which no more than one characteristic writhing symptom (convulsive stretching movement of the body) occurred over five minutes was registered.

Hot-plate test (mouse) = assay type: in vivo; conditions: po, 1 h, mice, p.o., 60 minutes after administration, plate 60°±0.5° C
Description: Eight mice (20-22 g) were used per dosage. Sixty minutes after oral administration of the test substance, the mice were placed on a heated metal plate of 60°±0.5° C. Untreated mice begin to lick their paws within a maximum of 10 seconds.

T1 sequence (P20288 whole entry): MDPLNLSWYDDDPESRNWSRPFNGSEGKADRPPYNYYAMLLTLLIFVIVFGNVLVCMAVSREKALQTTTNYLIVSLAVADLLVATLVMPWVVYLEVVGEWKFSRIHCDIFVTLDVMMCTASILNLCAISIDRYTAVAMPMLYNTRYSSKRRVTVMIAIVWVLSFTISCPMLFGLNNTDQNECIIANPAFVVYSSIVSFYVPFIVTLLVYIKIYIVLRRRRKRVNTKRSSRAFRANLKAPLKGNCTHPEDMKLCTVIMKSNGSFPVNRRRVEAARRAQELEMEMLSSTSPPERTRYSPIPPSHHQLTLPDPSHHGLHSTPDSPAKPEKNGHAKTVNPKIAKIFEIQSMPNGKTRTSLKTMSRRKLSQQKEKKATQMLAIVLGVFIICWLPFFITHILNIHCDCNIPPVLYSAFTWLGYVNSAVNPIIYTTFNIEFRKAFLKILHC

Compound | IC50 [1] [nM] | ED50 [2] [mg/kg] | ED10 [2] [mg/kg] | ED50 (Writhing test (mouse)) [mg/kg] | ED50 (Hot-plate test (mouse)) [mg/kg]
CC(C)(C)[C@]1(O)CCN2C[C@@H](c3ccc(Cl)cc3Cl)CC[C@@H]2C1 [(-)-(2S,7R,9aR)-2-tert.-Butyl-7-(2,4-dichlorophenyl) octahydro-2H-quinolizin-2-ol HCl] | 41 | 4.7 | 3.8 |  | 
CCCC[C@]1(OC(C)=O)CCN2C[C@@H](c3ccccc3)CC[C@@H]2C1 (relative stereo) [rac-(9aβH)-2α-n-Butyl-7β-phenyl-octahydro-2H-quinozilin-2-yl acetate HCl] |  |  |  | 0.75 | 25
O=c1[nH]c2cc(C(F)(F)F)ccc2n1[C@@H]1CCN2C[C@@H](c3ccccc3Cl)CC[C@@H]2C1 (relative stereo) [rac-1-[(9aβH)-7β-(o-Chlorophenyl)octahydro-2H-quinolizin-2α-yl]-5-trifluoromethyl-2-benzimidazolinone HCl] | 10 | 0.21 | 0.41 |  | 
CC(C)(C)[C@]1(OC(=O)C(F)(F)F)CCN2C[C@@H](c3ccccc3)CC[C@@H]2C1 (relative stereo) [rac-(9aβH)-2α-tert.Butyl-7β-phenyl-octahydro-2H-quinolizin-2-yl trifluoroacetate HCl] |  |  |  | 8.7 | 86
O=c1[nH]c2cc(Cl)ccc2n1[C@@H]1CCN2C[C@@H](c3ccccc3F)CC[C@@H]2C1 (relative stereo) [rac-1-[(9aβH)-7β-(o-Fluorophenyl)octahyro-2H-quinolizin-2α-yl]-5-chloro-2-benzimidazolinone HCl] |  | 0.064 | 0.175 |  | 
CCCCC1(OC(C)=O)CCN2CC(c3ccccc3)CCC2C1.Cl (single isomer, unassigned; (+)) [(+)-2-Butyloctahydro-7-phenyl-2H-quinolizin-2-yl acetate HCl] |  |  |  | 0.19 | 2.6
CC(C)(C)[C@]1(O)CCN2C[C@@H](c3ccc(Cl)cc3Cl)CC[C@@H]2C1 (relative stereo) [rac-(9aβ H)-2α-tert.-Butyl-7β-(2,4-dichlorophenyl) octahydro-2H-quinolizin-2-ol HCl] | 79 | 6.4 | 5.4 |  | 
CCC(=O)O[C@@]1(c2ccccc2)CCN2C[C@@H](c3cccc(OC)c3)CC[C@@H]2C1 (relative stereo) [rac-(9aβH)-2α-Phenyl-7β-(m-methoxyphenyl)-octahydro-2H-quinolizin-2-yl propionate HCl] |  |  |  | 2.8 | 12
Cc1cc2[nH]c(=O)n([C@@H]3CCN4C[C@@H](c5ccccc5Cl)CC[C@@H]4C3)c2cc1C (relative stereo) [rac-1-[(9aβH)-7β-(o-Chlorophenyl)octahydro-2H-quinolizin-2α-yl]-5,6-dimethyl-2-benzimidazolinone HCl] | 5 | 1.75 | 4.55 |  | 
CC(=O)O[C@]1(c2ccccc2)CCN2C[C@@H](c3ccccc3Cl)CC[C@@H]2C1 (relative stereo) [rac-(9aβH)-2β-Phenyl-7β-(o-chlorophenyl)-octahydro-2H-quinolizin-2-yl acetate HCl] |  |  |  | 116 | 284
